Data from patent US20230106769A1, “SERUM-FREE MEDIUM AND CULTURING METHOD SUITED FOR CULTURING BLOOD CELLS SUCH AS HUMAN HEMATOPOIETIC STEM CELLS” (The University of Tokyo, priority 2020, published 2023).

How the values were obtained:
[1] = tested on: human bone marrow CD34+ cells or cord blood CD34+ cells; assay: 14-day culture in PI3Ka and TPOago medium with SR-1 and/or UM171; assay type: cell-based
Method: Prepared was the above culture medium for human hematopoietic stem cells, which medium contained 20 μM PI3Ka and 0.1 μM TPOago instead of SCF and TPO (PI3Ka20μM+TPOago0.1 μM), or which medium contained SR-1 (500 nM) and/or UM171 (35 nM) (+SR-1, +UM171, or +SR-1+UM171). […] The total cell count and the CD34^+ cell count were determined as above on day 14 after the start of culture, and the growth rate relative to that at the start of culture was determined.
Prepared was the above culture medium for human hematopoietic stem cells, which medium contained 20 μM PI3Ka and 0.1 μM TPOago instead of SCF and TPO (PI3Ka20μM+TPO0.1μM), or which medium contained SR-1 (500nM) and/or UM171 (35 nM) (+SR-1, +UM171, or +SR-1+UM171). […] The total cell count and the CD34^+ cell count were determined as above on day 14 after the start of culture, and the growth rate relative to that at the start of culture was determined.

CD34+ cells [2] = assay: 14-day culture of CD34+ cells under conditions 1 to 3; assay type: cell-based, human
Method: Further, the growth rate of the total cell count or the CD34^+ cell count was determined by culturing the CD34^+ cells under three conditions: condition 1: cultured for 14 days in the culture medium for human hematopoietic stem cells above, which medium contained 20 μM PI3Ka and 0.1 μM TPOago instead of SCF and TPO (PI3Ka20μM+TPOago0.1μM), condition 2: at day 7 or later, cultured in a medium without butyzamide (Day7—no Buty), and condition 3: cultured for 14 days in a medium (PI3Ka20μM+TPOago0.1μM) further containing UM171 (+UM171). The CD41^+ cell count was determined using a flow cytometer.

[3] = tested on: human hematopoietic stem cells; assay: Culture of human hematopoietic stem cells with AKTa or PI3Ka; assay type: cell-based; conditions: 0.3 μM AKTa or 20 μM PI3Ka; PVA, no albumin, SCF 10 ng/mL, TPO 100 ng/mL
Method: Then, human hematopoietic stem cells were cultured in a culture medium supplemented with 0.3 μM AKTa (Sigma-Aldrich, product No. 123871) or 20 μM PI3Ka. Cells were counted after 3, 5, and 7 days of incubation, and the relative cell count at each time point was calculated while the cell count on the first day of incubation was set to 1. In the following Examples, 740Y-P (Provider name: Tocris, product No. 1983) was used as PI3Ka.

[4] = tested on: human bone marrow CD34+ cells or cord blood CD34+ cells; conditions: absence of albumin, presence of PVA; TPO replaced by agonist
Method: In addition, purchased human bone marrow CD34^+ cells (provider name: Lonza, product No. 2C-101) or CD34^+ cells isolated using microbeads from given fresh cord blood were used for culture experiments. the experiments were performed in 24-well plates at 0.2 to 1.0×10^5 cells per well, with TPO removed from the culture medium for human hematopoietic stem cells and replaced by one of the above TPO receptor agonists (hereinafter, sometimes referred to as “TPOago”). The cell count on the seventh day of culture relative to the cell count on the first day of culture was determined.
In addition, purchased human bone marrow CD34^+ cells (provider name: Lonza, product No. 2C-101) or CD34^+ cells isolated using microbeads from given fresh cord blood were used for culture experiments. Experiments were performed in 24-well plates with 0.2 to 1.0×10^5 cells per well, with TPO removed from the culture medium for human hematopoietic stem cells and replaced by one of the above TPO receptor agonists (hereinafter, sometimes referred to as “TPOago”). The cell count on the seventh day of culture relative to the cell count on the first day of culture was determined.

[5] = tested on: human hematopoietic stem cells; assay: Replacement of SCF by PI3Ka, 7-day culture; assay type: cell-based; conditions: day 7; 20 μM PI3Ka, TPO 100 ng/mL, PVA, no albumin
Method: Next, human hematopoietic stem cells were cultured to examine whether PI3Ka could completely replace SCF. Human hematopoietic stem cells were cultured for 7 days in the above culture medium for human hematopoietic stem cells with 20 μM PI3Ka (S10+PI3Ka20+T100) or in the above culture medium with 20 μM PI3Ka but without SCF (PI3Ka20+T100). The total number of cells and the number of isolated CD34^+ cells as obtained by cell sorting using an anti-CD34 antibody were then determined.

[6] = tested on: human hematopoietic stem cells; assay: Culture with PI3Ka and/or TPOago in medium without SCF or TPO; assay type: cell-based; conditions: day 7; 20 μM PI3Ka and/or 0.1 μM TPOago; no SCF, no TPO; PVA
Method: Next, human hematopoietic stem cells were cultured in a medium containing 20 μM PI3Ka and/or 0.1 μM TPOago with reference to a culture medium without SCF or TPO. On day 7 of culture, the number of total cells and the number of CD34^+ cells included were counted by flow cytometry, and the growth rate relative to that at the start of culture was determined.

Mp132D cells = assay: Replacement of TPO by TPO receptor agonists, Mp132D cells; assay type: cell-based, human; conditions: 0.1 μM butyzamide, 3 μg/mL eltrombopag, 3 μM avatrombopag; for proliferation in the absence of TPO: in the presence of 0.1% recombinant human serum albumin; for cell proliferative effect in the absence of TPO: in the presence of PVA, absence of albumin
Method: Next, human hematopoietic stem cells were cultured to examine whether TPO could be replaced by a TPO receptor agonist. Examples of the known TPO receptor agonist include butyzamide, eltrombopag, or avatrombopag. Human hematopoietic stem cells were cultured in a medium containing 0.1 μM butyzamide, 3 μg/mL eltrombopag, or 3 μM avatrombopag in the presence of 0.1% recombinant human serum albumin (Albumin Biosciences) or in the presence of PVA in the above culture medium without TPO. In this experiment, Mp132D cells were used as human hematopoietic stem cells.
Next, human hematopoietic stem cells were cultured to examine whether TPO could be replaced by a TPO receptor agonist. Examples of the known TPO receptor agonists include butyzamide, eltrombopag, or avatrombopag. Human hematopoietic stem cells were cultured in a medium containing 0.1 μM butyzamide, 3 μg/mL eltrombopag, or 3 μM avatrombopag in the presence of 0.1% recombinant human serum albumin (Albumin Biosciences) or in the presence of PVA in the above culture medium without TPO. In this experiment, Mp132D cells were used as human hematopoietic stem cells.

CD34+ cells [7] = assay: GEmM colony assay (Methocult H4415) after culture with PI3Ka and TPO or butyzamide; assay type: cell-based, human; conditions: GEmM colonies per 50 CD34+ cells; after 7-day culture; 0.1 μM butyzamide vs TPO
Method: (§1) In the following Examples, butyzamide was used as a TPO receptor agonist. […] After 7 days, the total number of cells was determined and the number of CD34^+ cells was determined by flow cytometry. Thereafter, the growth rate compared to that at the beginning of the incubation was determined. […] In addition, CD34^+ cells were sorted before and after incubation by using a cell sorter, and 100 cells were seeded into Methocult H4415 for colony assay. After two weeks, each colony was picked under a microscope, a cytospin sample was prepared, and the sample was subjected to Giemsa staining. The type of the colony was then identified under a microscope. GEmM colonies per 50 CD34^+ cells were counted and a rate of increase in the number of colonies compared to before the culture was determined.

[8] = tested on: human bone marrow CD34+ cells or cord blood CD34+ cells; assay: Culture with PI3Ka and TPO or butyzamide, growth rate at day 7; assay type: cell-based; conditions: 20 μM PI3Ka, 0.1 μM butyzamide vs TPO 100 ng/mL, PVA, no albumin
Method: as §1

[9] = tested on: Bone marrow cell samples from CML (chronic myelogenous leukemia) patients; assay: Culture of chronic myelogenous leukemia (CML) cells with or without imatinib; assay type: cell-based, human; conditions: one week; 0.1% PVA, 20 μM PI3Ka, 0.1 μM TPOago
Method: Bone marrow cell samples from CML (chronic myelogenous leukemia) patients were each cultured for one week under albumin-free and cytokine-free culture conditions. The culture medium used was a basal medium containing 0.1% PVA, 20 μM PI3Ka, and 0.1 μM TPOago. The culturing was performed in the presence or absence of an inhibitor (imatinib (IM)) of Bcr-Abl, the gene responsible for CML.

[10] = day 14, condition 2 compared to condition 1, condition 3 (+UM171) compared to condition 1 or 2

Molecule: Cn1nnc(-c2ccc3c(c2)[nH]c2nc(Cc4ccccc4)nc(NC4CCC(N)CC4)c23)n1 (stereo not drawn) [UM171, 4-N-[2-benzyl-7-(2-methyltetrazol-5-yl)-9H-pyrimid[4,5-b]indol-4-yl]cyclohexane-1,4-diamine]
- growth rate of CD34+ cells, medium containing UM171 vs medium without ([1]; day 14, UM171 35 nM): significantly larger
- total cell count and CD34+ cell count ([1]; day 14, UM171 35 nM added to PI3Ka20μM+TPOago0.1μM medium): increased
- CD34+ cell count / growth rate of CD34+ cells (CD34+ cells [2]; [10]): markedly increased
- CD41+ cell count (CD34+ cells [2]; [10]): markedly decreased
- differentiation into megakaryocyte progenitors and megakaryocytes (CD34+ cells [2]; serum-free medium with PVA, PI3Ka and TPOago): inhibited

Molecule: CCOC(=O)C1=C(N)Oc2ccc(Cl)cc2C1C(C#N)C(=O)OCC (stereo not drawn) [AKTa]
- relative cell count (proliferation) after 3, 5 and 7 days [3]: no proliferative effect

Molecule: CC1=NN(c2ccc(C)c(C)c2)C(=O)/C1=N\Nc1cccc(-c2cccc(C(=O)O)c2)c1O [eltrombopag]
- cell death (cytotoxicity) in hematopoietic stem cells [4]: caused cell death

Molecule: CC(C)n1cnc2c(NCCc3ccc(O)cc3)nc(-c3csc4ccccc34)nc21 [SR-1]
- cell death ([1]; SR-1 500 nM in PI3Ka20μM+TPOago0.1μM medium, PVA, no albumin): caused cell death

Molecule: SCF: stem cell factor, hematopoietic cell growth factor
- difference in number of total cells or CD34+ cells with or without SCF [5]: no statistically significant difference

Molecule: RQIKIWFQNRRMKWKKSDGGYMDMS [PI3Ka, Tocris, product No. 1983]
- growth rate (total cells and CD34+ cells) relative to start of culture [6]: no increase in the cell count
- relative cell count (proliferation) after 3, 5 and 7 days [3]: marked proliferation
- difference in number of total cells or CD34+ cells with or without SCF [5]: no significant difference

Molecule: O=C(Nc1nc(-c2cc(Cl)cs2)c(N2CCN(C3CCCCC3)CC2)s1)c1cnc(N2CCC(C(=O)O)CC2)c(Cl)c1 [avatrombopag]
- proliferation in the absence of TPO (Mp132D cells): able to support proliferation
- cell proliferative effect in the absence of TPO (Mp132D cells): small

Molecule: CCCOC(c1cccc(-c2csc(NC(=O)c3cc(Cl)c(C=C(C)C(=O)O)c(Cl)c3)n2)c1OC)C(C)(C)C (stereo not drawn) [butyzamide, 3-[4-[[[4-[2-methoxy-3-(1-tert-butyl-2-oxapentan-1-yl)phenyl]thiazol-2-yl]amino]carbonyl]-2,6-dichlorophenyl]-2-methylpropenoic acid]
- growth rate (total cells and CD34+ cells) relative to start of culture [6]: no increase in the cell count
- cell count on the seventh day relative to the first day (proliferation) [4]: significant cell proliferation
- GEmM colony formation potential, replacement of TPO (CD34+ cells [7]): can completely replace TPO
- proliferation in the absence of TPO (Mp132D cells): able to support proliferation
- cell proliferative effect in the absence of TPO (Mp132D cells): marked cell proliferative effect
- growth rate of total cells and CD34+ cells, replacement of TPO [8]: can completely replace TPO

Molecule: Cc1ccc(NC(=O)c2ccc(CN3CCN(C)CC3)cc2)cc1Nc1nccc(-c2cccnc2)n1 [IM, imatinib]
- cell expansion in the presence of IM [9]: no significant cell expansion
